Experimental data as given in US11739077B2, “Small molecule inhibitors of ubiquitin specific protease 1 (USP1) and uses thereof” (Insilico Medicine IP Limited, priority 2021, dated 2023).

Legend:
MDA-MB-436 cells = experiment: MDA-MB-436 breast cancer cell proliferation assay (CellTiter-Glo); assay type: cell-based; conditions: 7 days
Description: MDA-MB-436 cells were grown in Leibovitz's L-15 medium with 10 ug/ml insulin, 16 ug/ml glutathione, 10% FBS. Cells were passaged at subconfluence after trypsinization and maintained in incubators at 37° C. in a humidified atmosphere with 5% CO2.
Cell proliferation was determined using CellTiter-Glo® Luminescent Cell Viability Assay (Promega, #G7573). MDA-MB-436 cells were seeded in 384-well plates and allowed to attach for 24 h. Compounds were added into 384-well plate by ECHO, and incubated at 37° C. in a humidified atmosphere with 5% CO2. After 7 days, CellTiter-Glo was added into 384 well plates, contents were mixed on an orbital shaker at […] for 2 min before centrifuging the plate for 2 min at 1000 rpm. After incubation at RT for 30 min, luminescence was read on envision.

[1] = target: Human recombinant USP1/UAF1 (Homo sapiens (Human), UniProt O94782); experiment: Enzymatic assay, USP1/UAF1 with Ubiquitin Rhodamine 110; assay type: biochemical; conditions: 2 nM USP1/UAF1, 500 nM Ubiquitin Rhodamine 110, 15 minutes preincubation at RT
Description: Human recombinant USP1/UAF1 expressed in baculovirus infected Sf21 cells were used (R&D, E-568-050). Test compound and/or vehicle was incubated with 2 nM of USP1/UAF1 in modified HEPES buffer pH 8.0 for 15 minutes at RT. The reaction was initiated by addition of 500 nM of Ubiquitin Rhodamine 110 (R&D, U-555-050) for kinetic reading. Slope change of fluorescence intensity was read spectrofluorimetrically at 485 nm/535 nm.

Sequence of Human recombinant USP1/UAF1 (O94782 whole entry): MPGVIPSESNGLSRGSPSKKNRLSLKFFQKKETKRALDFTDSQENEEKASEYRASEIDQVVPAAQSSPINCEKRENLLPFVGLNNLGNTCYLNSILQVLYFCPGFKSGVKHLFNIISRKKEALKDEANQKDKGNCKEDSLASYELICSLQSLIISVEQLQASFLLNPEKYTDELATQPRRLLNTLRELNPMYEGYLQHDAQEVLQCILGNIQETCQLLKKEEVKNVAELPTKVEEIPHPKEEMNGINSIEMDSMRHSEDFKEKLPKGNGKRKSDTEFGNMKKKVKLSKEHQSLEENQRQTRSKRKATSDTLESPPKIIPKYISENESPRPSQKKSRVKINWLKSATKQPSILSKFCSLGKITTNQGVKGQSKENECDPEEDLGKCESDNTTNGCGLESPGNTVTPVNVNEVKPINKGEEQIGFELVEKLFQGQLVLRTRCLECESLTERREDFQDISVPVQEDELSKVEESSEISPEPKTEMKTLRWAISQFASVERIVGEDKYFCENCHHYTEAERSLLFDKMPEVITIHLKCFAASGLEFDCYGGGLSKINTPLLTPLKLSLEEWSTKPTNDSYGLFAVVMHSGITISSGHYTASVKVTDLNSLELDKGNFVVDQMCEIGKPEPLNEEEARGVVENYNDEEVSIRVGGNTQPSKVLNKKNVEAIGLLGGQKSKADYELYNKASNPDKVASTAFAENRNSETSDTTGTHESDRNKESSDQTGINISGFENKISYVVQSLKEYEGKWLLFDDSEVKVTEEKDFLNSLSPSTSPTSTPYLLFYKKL
Sequence of Human recombinant USP1/UAF1 (Q8TAF3 whole entry partner): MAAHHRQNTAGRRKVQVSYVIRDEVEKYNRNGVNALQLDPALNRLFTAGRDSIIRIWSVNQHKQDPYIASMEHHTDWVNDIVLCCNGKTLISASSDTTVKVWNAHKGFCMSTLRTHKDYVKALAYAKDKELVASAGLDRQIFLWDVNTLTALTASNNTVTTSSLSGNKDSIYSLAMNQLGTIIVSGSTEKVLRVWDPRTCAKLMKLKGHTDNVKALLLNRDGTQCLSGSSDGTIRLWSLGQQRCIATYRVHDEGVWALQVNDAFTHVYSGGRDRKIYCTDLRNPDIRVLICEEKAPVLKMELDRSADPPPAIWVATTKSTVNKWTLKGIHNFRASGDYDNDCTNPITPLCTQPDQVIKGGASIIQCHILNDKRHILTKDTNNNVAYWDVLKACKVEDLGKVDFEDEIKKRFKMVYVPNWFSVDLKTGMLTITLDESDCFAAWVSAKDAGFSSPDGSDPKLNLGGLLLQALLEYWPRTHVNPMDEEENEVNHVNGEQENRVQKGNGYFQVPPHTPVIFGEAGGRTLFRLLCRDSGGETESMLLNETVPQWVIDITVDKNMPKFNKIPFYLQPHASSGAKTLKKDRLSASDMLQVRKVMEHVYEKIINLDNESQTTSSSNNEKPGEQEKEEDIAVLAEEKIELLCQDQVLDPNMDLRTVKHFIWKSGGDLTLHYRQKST

| IC50 (MDA-MB-436 cells) [nM] | SMILES | IC50 (MDA-MB-436 cells; Homo sapiens, 168 h) [nM] | IC50 [1] [nM] |
| --- | --- | --- | --- |
|  | CC(C)c1ncncc1-c1nn(C)c2c1CN(c1ccc(-c3nc(C(F)(F)F)cn3C)cc1)CC2 [Example 2, 3-(4-isopropylpyrimidin-5-yl)-1-methyl-5-(4-(1-methyl-4-(trifluoromethyl)-1H-imidazol-2-yl)phenyl)-4,5,6,7-tetrahydro-1H-pyrazolo[4,3-c]pyridine] | 50 to 1000 | 50 to 1000 |
|  | COc1ncnc(C2CC2)c1-c1n[nH]c2c1CN(c1ccc(-c3nc(C(F)(F)F)cn3C(C)C)cn1)CC2 [Example 20, 3-(4-cyclopropyl-6-methoxypyrimidin-5-yl)-5-(5-(1-isopropyl-4-(trifluoromethyl)-1H-imidazol-2-yl)pyridin-2-yl)-4,5,6,7-tetrahydro-1H-pyrazolo[4,3-c]pyridine] | 50 to 1000 | 50 to 1000 |
|  | COc1ncnc(C2CC2)c1-c1nn(C)c2c1CN(c1cnc(-c3nc(C(F)(F)F)cn3C)nc1)CC2 [Example 26, 3-(4-cyclopropyl-6-methoxypyrimidin-5-yl)-1-methyl-5-(2-(1-methyl-4-(trifluoromethyl)-1H-imidazol-2-yl)pyrimidin-5-yl)-4,5,6,7-tetrahydro-1H-pyrazolo[4,3-c]pyridine] | 50 to 1000 | 50 to 1000 |
|  | COc1ncnc(C2CC2)c1-c1nn(C)c2c1CN(c1ccc(-c3nc(C(F)(F)F)cn3C)nn1)CC2 [Example 29, 3-(4-cyclopropyl-6-methoxypyrimidin-5-yl)-1-methyl-5-(6-(1-methyl-4-(trifluoromethyl)-1H-imidazol-2-yl)pyridazin-3-yl)-4,5,6,7-tetrahydro-1H-pyrazolo[4,3-c]pyridine] | 50 to 1000 | 50 to 1000 |
|  | [2H]C([2H])([2H])n1nc(-c2c(OC)ncnc2C2CC2)c2c1CCN(c1ccc(-c3nc(C(F)(F)F)cn3C(C)C)cn1)C2 [Example 11, 3-(4-cyclopropyl-6-methoxypyrimidin-5-yl)-5-(5-(1-isopropyl-4-(trifluoromethyl)-1H-imidazol-2-yl)pyridin-2-yl)-1-(methyl-d3)-4,5,6,7-tetrahydro-1H-pyrazolo[4,3-c]pyridine] | < 50 | < 50 |
|  | [2H]C([2H])([2H])n1nc(-c2c(OC)ncnc2C2CC2)c2c1CCN(c1ccc(-c3nc(C(F)(F)F)cn3C)cc1)C2 [Example 17, 3-(4-cyclopropyl-6-methoxypyrimidin-5-yl)-1-(methyl-d3)-5-(4-(1-methyl-4-(trifluoromethyl)-1H-imidazol-2-yl)phenyl)-4,5,6,7-tetrahydro-1H-pyrazolo[4,3-c]pyridine] | < 50 | < 50 |
|  | [2H]C([2H])([2H])n1nc(-c2c(OC)ncnc2C2CC2)c2c1CCN(c1ccc(-c3nc(C(F)(F)F)cn3C(C)C)cc1)C2 [Example 4, 3-(4-cyclopropyl-6-methoxypyrimidin-5-yl)-5-(4-(1-isopropyl-4-(trifluoromethyl)-1H-imidazol-2-yl)phenyl)-1-(methyl-d3)-4,5,6,7-tetrahydro-1H-pyrazolo[4,3-c]pyridine] | < 50 | < 50 |
|  | CCn1cc(C(F)(F)F)nc1-c1ccc(N2CCc3c(c(-c4c(OC)ncnc4C4CC4)nn3C)C2)nc1 [Example 25, 3-(4-cyclopropyl-6-methoxypyrimidin-5-yl)-5-(5-(1-ethyl-4-(trifluoromethyl)-1H-imidazol-2-yl)pyridin-2-yl)-1-methyl-4,5,6,7-tetrahydro-1H-pyrazolo[4,3-c]pyridine] | < 50 | < 50 |
|  | COc1ncnc(C2CC2)c1-c1nn(C(F)F)c2c1CN(c1ccc(-c3nc(C(F)(F)F)cn3C)cn1)CC2 [Example 31, 3-(4-cyclopropyl-6-methoxypyrimidin-5-yl)-1-(difluoromethyl)-5-(5-(1-methyl-4-(trifluoromethyl)-1H-imidazol-2-yl)pyridin-2-yl)-4,5,6,7-tetrahydro-1H-pyrazolo[4,3-c]pyridine] | 50 to 1000 | < 50 |
|  | COc1ncnc(C2CC2)c1-c1nn(C)c2c1CN(c1ccc(-c3nc(C(F)(F)F)cn3C)c(F)c1)CC2 [Example 8, 3-(4-cyclopropyl-6-methoxypyrimidin-5-yl)-5-(3-fluoro-4-(1-methyl-4-(trifluoromethyl)-1H-imidazol-2-yl)phenyl)-1-methyl-4,5,6,7-tetrahydro-1H-pyrazolo[4,3-c]pyridine] | < 50 | < 50 |
| 50 to 1000 | COc1ncnc(C2CC2)c1-c1nn(C)c2c1CN(c1ccc(-n3nc(C(F)(F)F)cc3C)cn1)CC2 [Example 15, 3-(4-cyclopropyl-6-methoxypyrimidin-5-yl)-1-methyl-5-(5-(5-methyl-3-(trifluoromethyl)-1H-pyrazol-1-yl)pyridin-2-yl)-4,5,6,7-tetrahydro-1H-pyrazolo[4,3-c]pyridine] |  | < 50 |
|  | COc1ncnc(C2CC2)c1-c1nn(C)c2c1CN(c1ccc(-c3nc(C(F)(F)F)cn3C)nc1)CC2 [Example 6, 3-(4-cyclopropyl-6-methoxypyrimidin-5-yl)-1-methyl-5-(6-(1-methyl-4-(trifluoromethyl)-1H-imidazol-2-yl)pyridin-3-yl)-4,5,6,7-tetrahydro-1H-pyrazolo[4,3-c]pyridine] | < 50 | < 50 |
|  | COc1ncnc(C2CC2)c1-c1nn(C)c2c1CN(c1ccc(-c3nc(C(F)(F)F)cn3C)cc1F)CC2 [Example 7, 3-(4-cyclopropyl-6-methoxypyrimidin-5-yl)-5-(2-fluoro-4-(1-methyl-4-(trifluoromethyl)-1H-imidazol-2-yl)phenyl)-1-methyl-4,5,6,7-tetrahydro-1H-pyrazolo[4,3-c]pyridine] | < 50 | < 50 |
|  | COc1ncnc(C2CC2)c1-c1nn(C)c2c1CN(c1ncc(-c3nc(C(F)(F)F)cn3C)cn1)CC2 [Example 27, 3-(4-cyclopropyl-6-methoxypyrimidin-5-yl)-1-methyl-5-(5-(1-methyl-4-(trifluoromethyl)-1H-imidazol-2-yl)pyrimidin-2-yl)-4,5,6,7-tetrahydro-1H-pyrazolo[4,3-c]pyridine] | < 50 | < 50 |
|  | Cn1cc(C(F)(F)F)nc1-c1ccc(N2CCc3c(c(-c4cccnc4OC(F)F)nn3C)C2)cc1 [Example 24, 3-(2-(difluoromethoxy)pyridin-3-yl)-1-methyl-5-(4-(1-methyl-4-(trifluoromethyl)-1H-imidazol-2-yl)phenyl)-4,5,6,7-tetrahydro-1H-pyrazolo[4,3-c]pyridine] | 50 to 1000 | < 50 |
|  | COc1ncnc(C2CC2)c1-c1nn(C(F)F)c2c1CN(c1ccc(-c3nc(C(F)(F)F)cn3C)cc1)CC2 [Example 9, 3-(4-cyclopropyl-6-methoxypyrimidin-5-yl)-1-(difluoromethyl)-5-(4-(1-methyl-4-(trifluoromethyl)-1H-imidazol-2-yl)phenyl)-4,5,6,7-tetrahydro-1H-pyrazolo[4,3-c]pyridine] | < 50 | < 50 |
|  | CCn1nc(-c2c(OC)ncnc2C2CC2)c2c1CCN(c1ccc(-c3nc(C(F)(F)F)cn3C)cn1)C2 [Example 16, 3-(4-cyclopropyl-6-methoxypyrimidin-5-yl)-1-ethyl-5-(5-(1-methyl-4-(trifluoromethyl)-1H-imidazol-2-yl)pyridin-2-yl)-4,5,6,7-tetrahydro-1H-pyrazolo[4,3-c]pyridine] | 50 to 1000 | 50 to 1000 |
|  | COc1ncnc(C2CC2)c1-c1nn(C)c2c1CN(c1ccc(-c3nc(C(F)(F)F)cn3C)cn1)CC2 [Example 5, 3-(4-cyclopropyl-6-methoxypyrimidin-5-yl)-1-methyl-5-(5-(1-methyl-4-(trifluoromethyl)-1H-imidazol-2-yl)pyridin-2-yl)-4,5,6,7-tetrahydro-1H-pyrazolo[4,3-c]pyridine] | < 50 | < 50 |
|  | CC(C)c1ncccc1-c1nn(C)c2c1CN(c1ccc(-c3nc(C(F)(F)F)cn3C)cc1)CC2 [Example 1, 3-(2-isopropylpyridin-3-yl)-1-methyl-5-(4-(1-methyl-4-(trifluoromethyl)-1H-imidazol-2-yl)phenyl)-4,5,6,7-tetrahydro-1H-pyrazolo[4,3-c]pyridine] | < 50 | < 50 |
|  | Cc1ncnc(C2CC2)c1-c1nn(C)c2c1CN(c1ccc(-c3nc(C(F)(F)F)cn3C)cn1)CC2 [Example 13, 3-(4-cyclopropyl-6-methylpyrimidin-5-yl)-1-methyl-5-(5-(1-methyl-4-(trifluoromethyl)-1H-imidazol-2-yl)pyridin-2-yl)-4,5,6,7-tetrahydro-1H-pyrazolo[4,3-c]pyridine] | 50 to 1000 | 50 to 1000 |
|  | COc1ncnc(C2CC2)c1-c1nn(C)c2c1CN(c1ccc(-c3nc(C(F)(F)F)cn3C(C)C)cn1)CC2 [Example 10, 3-(4-cyclopropyl-6-methoxypyrimidin-5-yl)-5-(5-(1-isopropyl-4-(trifluoromethyl)-1H-imidazol-2-yl)pyridin-2-yl)-1-methyl-4,5,6,7-tetrahydro-1H-pyrazolo[4,3-c]pyridine] | < 50 | < 50 |
|  | COc1ncnc(C2CC2)c1-c1nn(C)c2c1CN(c1cnc(-c3nc(C(F)(F)F)cn3C)cn1)CC2 [Example 28, 3-(4-cyclopropyl-6-methoxypyrimidin-5-yl)-1-methyl-5-(5-(1-methyl-4-(trifluoromethyl)-1H-imidazol-2-yl)pyrazin-2-yl)-4,5,6,7-tetrahydro-1H-pyrazolo[4,3-c]pyridine] | < 50 | < 50 |
